Reference: ChEMBL document CHEMBL1629538 (J Med Chem, 2010)
Active and inactive are the calls of the source. The calls are words filed in the database; no cut-off is given here. Bridge positions count the residues as written; N and C are the ends. Peptide text beside a SMILES is read from it. * marks the point of attachment. Bz = O=C(c1ccccc1)*

Assays:
[1] = molecular target: Nociceptin receptor (Mus musculus) (UniProt P35377); assay: Agonist activity at NOR in mouse Neuro-2a cells assessed as stimulation of ERK phosphorylation after 35 mins post dose by Alphascreen Surefire assay relative to control
Sequence of Nociceptin receptor (Mus musculus) (P35377 whole entry): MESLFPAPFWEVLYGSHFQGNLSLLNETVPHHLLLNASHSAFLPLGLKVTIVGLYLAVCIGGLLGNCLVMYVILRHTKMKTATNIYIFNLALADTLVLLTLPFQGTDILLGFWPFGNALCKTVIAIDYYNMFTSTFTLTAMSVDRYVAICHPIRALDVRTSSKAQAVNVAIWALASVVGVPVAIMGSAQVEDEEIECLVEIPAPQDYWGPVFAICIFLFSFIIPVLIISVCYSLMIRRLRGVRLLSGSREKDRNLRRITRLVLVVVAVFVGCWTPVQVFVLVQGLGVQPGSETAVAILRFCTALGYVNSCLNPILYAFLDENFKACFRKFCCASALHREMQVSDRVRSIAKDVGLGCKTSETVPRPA

Nociceptin receptor [2] = molecular target: T1, Nociceptin receptor (Mus musculus, UniProt P35377); assay: Antagonist activity at NOR in mouse Neuro-2a cells assessed as inhibition of nociceptin-induced ERK phosphorylation administered for 15 mins before nociceptin challenge by Alphascreen Surefire assay; format: functional, cell-based
T1 sequence (P35377 whole entry): as above

Nociceptin receptor [3] = molecular target: T1, Nociceptin receptor; assay: Agonist activity at NOR in mouse Neuro-2a cells assessed as stimulation of ERK phosphorylation after 35 mins post dose by Alphascreen Surefire assay
[4] = Cytotoxicity in human erythrocytes assessed as induction of hemolysis at 100 uM; format: cell-based; details: erythrocyte
[5] = Half life in human serum; format: ADME, cell-free
Nociceptin receptor [6] = molecular target: T1, Nociceptin receptor; assay: Antagonist activity at NOR in mouse Neuro-2a cells assessed as inhibition of nociceptin-induced ERK phosphorylation administered for 15 mins before nociceptin challenge by competitive inhibition assay; format: functional, cell-based; details: read-out: pA2 (converted)
[7] = molecular target: Nociceptin receptor (Mus musculus) (UniProt P35377); assay: Antagonist activity at NOR in mouse Neuro-2a cells assessed as inhibition of nociceptin-induced ERK phosphorylation at 100 nM administered for 15 mins before nociceptin challenge by Alphascreen Surefire assay; format: functional, cell-based
[8] = molecular target: Nociceptin receptor (Mus musculus) (UniProt P35377); assay: Agonist activity at NOR in mouse Neuro-2a cells assessed as stimulation of ERK phosphorylation at 1 uM after 35 mins post dose by Alphascreen Surefire assay

Structure (SMILES): C[C@@H](O)[C@H](NC(=O)[C@H](Cc1ccccc1)NC(=O)CNC(=O)CNC(=O)[C@@H](N)Cc1ccccc1)C(=O)NCC(=O)N[C@H]1CCCCNC(=O)C[C@@H](C(N)=O)NC(=O)[C@H](CCCCN)NC(=O)[C@H](CCCNC(=N)N)NC(=O)[C@@H]2CC(=O)NCCCC[C@@H](CC(=O)[C@H](CCCCN)NC(=O)[C@H](CCCNC(=N)N)NC1=O)C(=O)N2
- Emax [1]: 92%

Structure (SMILES): C[C@@H](O)[C@H](NC(=O)[C@H](Cc1ccccc1)NC(=O)CNC(=O)CNC(=O)CNC(=O)c1ccccc1)C(=O)NCC(=O)N[C@H]1CCCCNC(=O)C[C@@H](C(=O)N[C@@H](CCCN=C(N)N)C(=O)N[C@@H](CCCCN)C(=O)N[C@H]2CCCCNC(=O)C[C@@H](C(N)=O)NC(=O)[C@H](CCC(N)=O)NC(=O)[C@H](CC(N)=O)NC(=O)[C@H](CCCCN)NC2=O)NC(=O)[C@H](CO)NC(=O)[C@H](CCCCN)NC(=O)[C@H](CCCN=C(N)N)NC1=O (Bz-GGGFTGKRKSDRKKKNQD-NH2; lactam 7-11, 14-18)
- IC50 (Nociceptin receptor [2]; read-out: IC50): 12 nM

Structure (SMILES): CC(C)C[C@H](NC(=O)[C@H](CCCCN)NC(=O)[C@H](CCCN=C(N)N)NC(=O)[C@H](C)NC(=O)[C@H](CO)NC(=O)[C@H](CCCCN)NC(=O)[C@H](CCCN=C(N)N)NC(=O)[C@H](C)NC(=O)CNC(=O)[C@@H](NC(=O)[C@H](Cc1ccc(F)cc1)NC(=O)CNC(=O)CNC(=O)[C@@H](N)Cc1ccccc1)[C@@H](C)O)C(=O)N[C@@H](CCCCN)C(=O)N[C@@H](CC(N)=O)C(=O)N[C@@H](CCC(N)=O)C(N)=O
- EC50 (Nociceptin receptor [3]): 0.36 nM

Structure (SMILES): CC(C)C[C@H](NC(=O)[C@H](CCCCN)NC(=O)[C@H](CCCN=C(N)N)NC(=O)[C@H](C)NC(=O)[C@H](CO)NC(=O)[C@H](CCCCN)NC(=O)[C@H](CCCN=C(N)N)NC(=O)[C@H](C)NC(=O)CNC(=O)[C@@H](NC(=O)[C@H](Cc1ccc(F)cc1)NC(=O)CNC(=O)CNC(=O)CNCc1ccccc1)[C@@H](C)O)C(=O)N[C@@H](CCCCN)C(=O)N[C@@H](CC(N)=O)C(=O)N[C@@H](CCC(N)=O)C(N)=O
- pIC50 (Nociceptin receptor [2]; neuro-2a): 7.49

Structure (SMILES): C[C@H](NC(=O)CNC(=O)[C@@H](NC(=O)[C@H](Cc1ccccc1)NC(=O)CNC(=O)CNC(=O)[C@@H](N)Cc1ccccc1)[C@@H](C)O)C(=O)N[C@@H](CCCNC(=N)N)C(=O)N[C@@H](CCCCN)C(=O)N[C@@H](CO)C(=O)N[C@@H](C)C(=O)N[C@@H](CCCNC(=N)N)C(=O)N[C@@H](CCCCN)C(N)=O
- Emax [1]: 90%

Structure (SMILES): C[C@@H]1NC(=O)[C@@H](NC(=O)[C@H](CCCCN)NC(=O)[C@H](CCCN=C(N)N)NC(=O)[C@@H]2CC(=O)NCCCC[C@H](NC(=O)CNC(=O)[C@@H](NC(=O)[C@H](Cc3ccccc3)NC(=O)CNC(=O)CNC(=O)[C@@H](N)Cc3ccccc3)[C@@H](C)O)C(=O)N[C@@H](CCCN=C(N)N)C(=O)N[C@@H](CCCCN)C(=O)N[C@@H](CO)C(=O)N2)CCCCNC(=O)C[C@@H](C(N)=O)NC(=O)[C@H](CCC(N)=O)NC(=O)[C@H](CC(N)=O)NC1=O
- Activity [4]: Non-toxic
- half-life [5]: > 6 h

Structure (SMILES): C[C@@H](O)[C@H](NC(=O)[C@H](Cc1ccccc1)NC(=O)CNC(=O)CNC(=O)[C@@H](N)Cc1ccccc1)C(=O)NCC(=O)N[C@H]1CCCCNC(=O)C[C@@H](C(N)=O)NC(=O)[C@H](CCCCN)NC(=O)[C@H](CCCN=C(N)N)NC(=O)[C@@H]2CC(=O)NCCCC[C@@H](CC(=O)[C@H](CCCCN)NC(=O)[C@H](CCCN=C(N)N)NC1=O)C(=O)N2
- EC50 (Nociceptin receptor [3]): 14 nM

Structure (SMILES): C[C@@H](O)[C@H](NC(=O)[C@H](Cc1ccc(F)cc1)NC(=O)CNC(=O)CNC(=O)CNC(=O)c1ccccc1)C(=O)NCC(=O)N[C@H]1CCCCNC(=O)C[C@@H](C(=O)N[C@@H](CCCN=C(N)N)C(=O)N[C@@H](CCCCN)C(=O)N[C@H]2CCCCNC(=O)C[C@@H](C(N)=O)NC(=O)[C@H](CCC(N)=O)NC(=O)[C@H](CC(N)=O)NC(=O)[C@H](CCCCN)NC2=O)NC(=O)[C@H](CO)NC(=O)[C@H](CCCCN)NC(=O)[C@H](CCCN=C(N)N)NC1=O
- Kb (Nociceptin receptor [6]): 1.95 nM
- IC50 (Nociceptin receptor [2]; read-out: IC50): 7.5 nM

Structure (SMILES): CC(C)C[C@H](NC(=O)[C@H](CCCCN)NC(=O)[C@H](CCCN=C(N)N)NC(=O)[C@H](C)NC(=O)[C@H](CO)NC(=O)[C@H](CCCCN)NC(=O)[C@H](CCCN=C(N)N)NC(=O)[C@H](C)NC(=O)CNC(=O)[C@@H](NC(=O)[C@H](Cc1ccccc1)NC(=O)CNC(=O)CNC(=O)[C@@H](N)Cc1ccccc1)[C@@H](C)O)C(=O)N[C@@H](C)C(=O)N[C@@H](CC(N)=O)C(=O)N[C@@H](CCC(N)=O)C(=O)O [NOCICEPTIN]
- Activity [4]: Non-toxic
- half-life [5]: 1 h

Structure (SMILES): CC(C)C[C@@H]1NC(=O)[C@H](CCCCN)NC(=O)[C@H](CCCNC(=N)N)NC(=O)[C@@H](NC(=O)[C@@H]2CC(=O)NCCCC[C@H](NC(=O)[C@@H](NC(=O)[C@H](Cc3ccccc3)NC(=O)CNC(=O)CNC(=O)CNC(=O)c3ccccc3)[C@@H](C)O)C(=O)N[C@@H](C)C(=O)N[C@@H](CCCNC(=N)N)C(=O)N[C@@H](CCCCN)C(=O)N2)CCCCNC(=O)C[C@@H](C(N)=O)NC1=O (Bz-GGGFTKARKDKRKLD-NH2; lactam 6-10, 11-15)
- inhibition [7]: inactive

Structure (SMILES): CC(C)C[C@H](NC(=O)[C@H](CCCCN)NC(=O)[C@H](CCCNC(=N)N)NC(=O)[C@H](C)NC(=O)[C@H](CO)NC(=O)[C@H](CCCCN)NC(=O)[C@H](CCCNC(=N)N)NC(=O)[C@H](C)NC(=O)CNC(=O)[C@@H](NC(=O)[C@H](Cc1ccc(F)cc1)NC(=O)CNC(=O)CNC(=O)CNC(=O)c1ccccc1)[C@@H](C)O)C(=O)N[C@@H](CCCCN)C(=O)N[C@@H](CC(N)=O)C(=O)N[C@@H](CCC(N)=O)C(N)=O
- Activity [8]: inactive

Structure (SMILES): CC(=O)N[C@H](C(=O)N[C@H]1CCCCNC(=O)C[C@@H](C(=O)N[C@H]2CCCCNC(=O)C[C@@H](C(N)=O)NC(=O)[C@H](CC(C)C)NC(=O)[C@H](CCCCN)NC(=O)[C@H](CCCN=C(N)N)NC2=O)NC(=O)[C@H](CCCCN)NC(=O)[C@H](CCCN=C(N)N)NC(=O)[C@H](C)NC1=O)[C@@H](C)O (Ac-TKARKDKRKLD-NH2; lactam 2-6, 7-11)
- IC50 (Nociceptin receptor [2]; read-out: pIC50 (converted)): > 100 nM

Structure (SMILES): CC(C)C[C@@H]1NC(=O)[C@H](CCCCN)NC(=O)[C@H](CCCN=C(N)N)NC(=O)[C@@H](NC(=O)[C@@H]2CC(=O)NCCCC[C@H](NC(=O)[C@@H](NC(=O)[C@H](Cc3ccccc3)NC(=O)CNC(=O)CNC(=O)CNC(=O)c3ccccc3)[C@@H](C)O)C(=O)N[C@@H](C)C(=O)N[C@@H](CCCN=C(N)N)C(=O)N[C@@H](CCCCN)C(=O)N2)CCCCNC(=O)C[C@@H](C(N)=O)NC1=O (Bz-GGGFTKARKDKRKLD-NH2; lactam 6-10, 11-15)
- IC50 (Nociceptin receptor [2]; read-out: pIC50 (converted)): > 100 nM

Structure (SMILES): CC(=O)N[C@H](C(=O)N[C@H]1CCCCNC(=O)C[C@@H](C(=O)N[C@H]2CCCCNC(=O)C[C@@H](C(N)=O)NC(=O)[C@H](CC(C)C)NC(=O)[C@H](CCCCN)NC(=O)[C@H](CCCNC(=N)N)NC2=O)NC(=O)[C@H](CCCCN)NC(=O)[C@H](CCCNC(=N)N)NC(=O)[C@H](C)NC1=O)[C@@H](C)O (Ac-TKARKDKRKLD-NH2; lactam 2-6, 7-11)
- inhibition [7]: inactive

Structure (SMILES): C[C@@H](O)[C@H](NC(=O)[C@H](Cc1ccccc1)NC(=O)CNC(=O)CNC(=O)[C@@H](N)Cc1ccccc1)C(=O)NCC(=O)N[C@H]1CCCCNC(=O)C[C@@H](C(=O)N[C@@H](CCCN=C(N)N)C(=O)N[C@@H](CCCCN)C(N)=O)NC(=O)[C@H](CO)NC(=O)[C@H](CCCCN)NC(=O)[C@H](CCCN=C(N)N)NC1=O (H-FGGFTGKRKSDRK-NH2; lactam 7-11)
- EC50 (Nociceptin receptor [3]): 30 nM

Structure (SMILES): C[C@@H](O)[C@H](NC(=O)[C@H](Cc1ccccc1)NC(=O)CNC(=O)CNC(=O)[C@@H](N)Cc1ccccc1)C(=O)NCC(=O)N[C@H]1CCCCNC(=O)C[C@@H](C(=O)N[C@@H](CCCNC(=N)N)C(=O)N[C@@H](CCCCN)C(N)=O)NC(=O)[C@H](CO)NC(=O)[C@H](CCCCN)NC(=O)[C@H](CCCNC(=N)N)NC1=O (H-FGGFTGKRKSDRK-NH2; lactam 7-11)
- Emax [1]: 80%

Structure (SMILES): C[C@@H](O)[C@H](NC(=O)[C@H](Cc1ccc(F)cc1)NC(=O)CNC(=O)CNC(=O)[C@@H](N)Cc1ccccc1)C(=O)NCC(=O)N[C@H]1CCCCNC(=O)C[C@@H](C(=O)N[C@@H](CCCN=C(N)N)C(=O)N[C@@H](CCCCN)C(=O)N[C@H]2CCCCNC(=O)C[C@@H](C(N)=O)NC(=O)[C@H](CCC(N)=O)NC(=O)[C@H](CC(N)=O)NC(=O)[C@H](CCCCN)NC2=O)NC(=O)[C@H](CO)NC(=O)[C@H](CCCCN)NC(=O)[C@H](CCCN=C(N)N)NC1=O
- EC50 (Nociceptin receptor [3]): 0.04 nM
- EC50 (Nociceptin receptor [3]; neuro-2a): 0.04 nM

Structure (SMILES): C[C@@H](O)[C@H](NC(=O)[C@H](Cc1ccc(F)cc1)NC(=O)CNC(=O)CNC(=O)CNC(=O)c1ccccc1)C(=O)NCC(=O)N[C@H]1CCCCNC(=O)C[C@@H](C(=O)N[C@@H](CCCNC(=N)N)C(=O)N[C@@H](CCCCN)C(=O)N[C@H]2CCCCNC(=O)C[C@@H](C(N)=O)NC(=O)[C@H](CCC(N)=O)NC(=O)[C@H](CC(N)=O)NC(=O)[C@H](CCCCN)NC2=O)NC(=O)[C@H](CO)NC(=O)[C@H](CCCCN)NC(=O)[C@H](CCCNC(=N)N)NC1=O
- Activity [8]: inactive
